This note sets out measurements from patent US20230391871A1, “MONOAMINE OXIDASE BLOCKADE THERAPY FOR TREATING CANCER THROUGH REGULATING TUMOR ASSOCIATED MACROPHAGES (TAMS)” (THE REGENTS OF THE UNIVERSITY OF CALIFORNIA, priority 2020, published 2023).

The subject of test [1] is wildtype BMDMs (bone marrow-derived macrophages). The test is described as follows: In vitro WT BMDM IL-4/IL-13-induced polarization culture with MAOI treatment. As to conditions: IL-4/IL-13-stimulated WT BMDMs, 24 h. The format is cell-based, mouse. The protocol: (a) Experimental design. Wildtype BMDMs were stimulated with IL-4/IL-13 with or without MAOI treatment. MAOIs (monoamine oxidase inhibitors) studied were phenelzine (Phe: 20 μM), clorgyline (Clo: 20 μM), moclobemide (Moc: 200 μM), and pirlindole (Pir: 20 μM). NT, no MAOI treatment. (b) FACS analyses of ROS levels in BMDMs. (c) FACS analyses of CD206 expression on BMDMs. (d,e) QPCR analyses of Chi313 (d) and Arg1 (e) mRNA expression in BMDMs. f-j, Studying the TAM-related cancer immunotherapy potential of MAOI treatment in a B16-OVA melanoma syngeneic mouse tumour model (n=7-8). (f) Experimental design. B6 wildtype mice were treated with clodronate liposomes (Clod) to serve as TAM-depleted experimental mice, or treated with vehicle liposomes (Veh) to serve as TAM-intact control mice. Phe, phenelzine treatment: NT, no phenelzine treatment. (g) Tumour growth. (h) Tumour volume at day 18. (i) FACS analyses of CD206 expression on TAMs of TAM-intact experimental mice. (j) FACS analyses of intracellular Granzyme B production in tumour-infiltrating CD8^+ T cells of all experimental mice. k-o, Studying the cancer therapy potential of MAOI treatment in combination with anti-PD-1 treatment in the B16-OVA melanoma and MC38 colon cancer syngeneic mouse tumour models (n=5). (k) Experimental design. Tumour-bearing mice were treated with anti-PD-1 antibody (aPD-1) or isotype control (Iso), together with or without phenelzine (Phe) treatment. NT, no Phe treatment. (l) B16-OVA tumour growth. (m) B16-OVA tumour volume at day 18. (n) MC38 tumour growth. (o) MC38 tumour volume at day 27. Representative of 3 experiments. All data are presented as the mean±SEM. ns, not significant, *P<0.05, **P<0.01, and ***P<0.001, by I-way ANOVA (b-e, h, j, m, o) or by Student's t test (i).
(§1) To generate BMDMs, BM cells were collected from femurs and tibias of Maoa WT mice and Maoa KO mice, and were cultured in C10 medium containing with 20% of L929-conditional medium in a 10-cm dish (2×10^6 cells per ml: 12 ml per dish) for 6 days. At day 6, the resulting BMDMs were collected and reseeded in a 6-well plate (1×10^6 cells per ml: 2 ml per well) in C10 medium for 24 hours, in the presence or absence of recombinant murine IL-4 (10 ng/ml) (Peprotech, 200-04) and IL-13 (10 ng/ml) (Peprotech, 200-13) to induce BMDM immunosuppressive polarization.
In some experiments, MAOIs were added to the Maoa WT BMDM polarization culture 30 minutes prior to adding recombinant murine IL-4 and IL-13, to block MAO-A activity during BMDM polarization. MAOIs studied were phenelzine (Phe, 20 μM) (Sigma-Aldrich), clorgyline (Clo, 20 μM) (Sigma-Aldrich), moclobemide (Moc, 200 μM) (Sigma-Aldrich), and pirlindole (Pir, 20 μM) (R&D Systems). At 24 hours after IL-4/IL-13 stimulation, BMDMs were collected for analysis.
Cells were stained with surface marker antibodies, washed with PBS, then resuspended in pre-warmed PBS (1×10^6 cells/ml/tube) containing 1 μM CM-H2DCFDA (Thermo Fisher Scientific, C6827). After 15 minutes incubation at room temperature, cells were immediately washed with cold PBS followed by flow cytometry analysis. ROS levels were measured by oxidation of the CM-H2DCFDA probes that can be read out as the fluorescence intensity at the FITC/488 channel of a flow cytometer. Single cell RNA sequencing (scRNAseq) scRNASeq was used to analyze the gene expression profiles of TIIs. B16-OVA tumours were harvested from Maoa WT and Maoa KO mice to prepare TII suspensions (10 tumours were combined for each group). TII suspensions were then sorted using a FACSAria II flow cytometer to purify immune cells (gated as DAPI-CD45.2^+ cells). Sorted TIIs were immediately delivered to the Technology Center for Genomics & Bioinformatics (TCGB) facility at UCLA for library construction and sequencing.

For test [2], the system named is Maoa WT and Maoa KO BMDMs. The test is described as follows: Maoa WT and Maoa KO BMDM IL-4/IL-13 polarization with H2O2 or tyramine supplement. It counts as cell-based, mouse.
Text: MAO-A breaks down monoamines and generates hydrogen peroxide (H2O2) as a byproduct, thereby increasing reactive oxygen species (ROS) levels in a TAM. b,c, Studying the in vivo ROS levels in TAMs isolated from Mao WT and Mao KO mice bearing B16-OVA tumours (n=4). (b) Experimental design. (c) FACS analyses of ROS levels in Maoa WT and Maoa KO TAMs at day 18. TAMs were gated as the CD45.2^+CD11b^+Ly6G^−Ly6C^−/lowF4/80^+ cells of total tumour-infiltrating immune cells (TIIs). d, FACS analyses of ROS levels in in vitro-cultured Maoa WT and Maoa KO BMDMs, […] IL-4/IL-13 polarization for 24 hours (n=4). NC, no cytokine-treated control BMDMs: IL-4/IL-13, IL-4/IL-13-polarized BMDMs. e-g, Studying the phenotype of IL-4/IL-13-polarized Maoa WT and Maoa KO BMDMs with or without H2O2 treatment (n=3). BMDMs were treated with H2O2 for 30 minutes prior to IL-4/IL-13 polarization for 24 hours. (e) FACS analyses of CD206 expression on BMDMs. (f,g) QPCR analyses of Chi313 (f) and Arg1 (g) mRNA expression in BMDMs. h-j, Studying the phenotype of IL-4/IL-13-polarized Maoa WT and Maoa KO BMDMs with or without tyramine supplement (n=3). BMDMs were treated with tyramine for 30 minutes prior to IL-4/IL-13 polarization for 24 hours. (h) FACS analyses of ROS levels in BMDMs. (i,j) QPCR analyses of Chi3/3 (i) and Arg1 (j) mRNA expression in BMDMs. k,l, Studying the in vivo Stat6 signaling in TAMs isolated from Mao WT and Mao KO mice bearing B16-OVA tumours (combined from 5 mice per group). (k) Experimental design. (l) Western blot analyses of Stat6 phosphorylation in TAMs at day 18. TAMs were FACS sorted as the DAPI^−CD45.2^+CD11b^+Ly6G^−Ly6C^−/lowF4/80^+ cells from total TIIs. m, Western blot analyses of JAK-Stat6 signaling in in vitro-cultured Maoa WT and Maoa KO BMDMs, with or without IL-4/IL-13 polarization and H2O2 treatment. BMDMs were treated with H2O2 for 30 minutes prior to IL-4/IL-13 stimulation for another 30 minutes. Representative of 3 experiments. All data are presented as the mean±SEM. ns, not significant, *P<0.05, **P<0.01, and ***P<0.001, by 2-way ANOVA (d-j) or by Student's t test (c).
[…] BMDMs (denoted as WT and KO, respectively) were treated with H2O2 for 30 minutes followed by IL-4/IL-13 stimulation for another 30 minutes. BMDMs were then collected for FACS analysis. N=4. a, FACS plots showing ROS levels in the indicated BMDMs. b, Quantification of A. Representative of 2 experiments. All data are presented as the mean±SEM. ns, not significant, ***P<0.001, by 2-way ANOVA (b).
as §1
In some experiments, H2O2 (100 μM) were added to the Maoa WT and Maoa KO BMDM polarization culture 30 minutes prior to adding recombinant murine IL-4 and IL-13. At 30 minutes after IL-4/IL-13 stimulation, BMDMs were collected for WB analysis: at 24 hours after IL-4/IL-13 stimulation, BMDMs were collected for flow cytometry and QPCR analysis.
In some experiments, tyramine (100 μM) (Sigma-Aldrich, T90344) were added to the Maoa WT and Maoa KO BMDM polarization culture 30 minutes prior to adding recombinant murine IL-4 and IL-13. At 24 hours after IL-4/IL-13 stimulation, BMDMs were collected for flow cytometry and QPCR analysis.

Where [3] appears, read: MAOI 20 μM added 30 min before cytokines.
Setting [4] is: Maoa KO BMDMs, tyramine 100 μM, 30 min before IL-4/IL-13, 24 h.
[5] abbreviates: Maoa WT BMDMs, tyramine 100 μM, 30 min before IL-4/IL-13, 24 h.
Where [6] appears, read: IL-4/IL-13-stimulated Maoa WT and KO BMDMs, H2O2 100 μM, 24 h.

On to `O=C(NCCN1CCOCC1)c1ccc(Cl)cc1` [mocolobemide, moclobemide], for which the “ROS levels in BMDMs (FACS)” value in test [1] (MAOI 200 μM added 30 min before cytokines) was “efficiently reduced”. Besides, in test [1] (MAOI 200 μM), the “Arg1 mRNA expression in BMDMs (QPCR)” value is “decreased expression”, the “CD206 expression on BMDMs (FACS)” value was “decreased expression”, the “Chi313 mRNA expression in BMDMs (QPCR)” value is “decreased expression” and the “immunosuppressive polarization of BMDMs” value is “suppressed”.

Regarding `Cc1ccc2c(c1)c1c3n2CCNC3CCC1` (centres unmarked) [pirlindole], the “ROS levels in BMDMs (FACS)” value in test [1] (setting [3]) is given as “efficiently reduced”. In test [1] (MAOI 20 μM), the “Arg1 mRNA expression in BMDMs (QPCR)” value was “decreased expression”, the “CD206 expression on BMDMs (FACS)” value was “decreased expression”, the “Chi313 mRNA expression in BMDMs (QPCR)” value is recorded as “decreased expression” and the “immunosuppressive polarization of BMDMs” value is listed as “suppressed”.

Turning to `C#CCN(C)CCCOc1ccc(Cl)cc1Cl` [clorgyline], the “ROS levels in BMDMs (FACS)” value in test [1] (setting [3]) is reported as “efficiently reduced”. Besides, in test [1] (MAOI 20 μM), the “Arg1 mRNA expression in BMDMs (QPCR)” value is listed as “decreased expression”, the “CD206 expression on BMDMs (FACS)” value is “decreased expression”, the “Chi313 mRNA expression in BMDMs (QPCR)” value is listed as “decreased expression” and the “immunosuppressive polarization of BMDMs” value is “suppressed”.

With `NCCc1ccc(O)cc1` [tyramine], in test [2] (setting [4]), the “increase of ROS levels in BMDMs” value was “not”, the “upregulation of Arg1 mRNA expression in BMDMs” value is “not” and the “upregulation of Chi313 mRNA expression in BMDMs” value is “not”. In addition, in test [2] (setting [5]), the “Arg1 mRNA expression in BMDMs” value is “upregulated”, the “Chi313 mRNA expression in BMDMs” value is “upregulated” and the “ROS levels in BMDMs” value is listed as “increased”.

As for `OO` [H2O2, hydrogen peroxide], in test [2] (IL-4/IL-13-stimulated Maoa WT and KO BMDMs, H2O2 100 μM, 30 min stimulation, to similar levels), the “JAK-Stat6 signaling (JAK1, JAK2, JAK3, Stat6 phosphorylation, Western blot)” value was “increased”. For the same molecule, in test [2] (setting [6]), the “Maoa WT vs KO difference in Arg1 expression” value is “eliminated their differences”, the “Maoa WT vs KO difference in CD206 expression” value is “eliminated their differences” and the “Maoa WT vs KO difference in Chi313 expression” value is on record as “eliminated their differences”. Further, the “intracellular ROS in BMDMs” value in test [2] (IL-4/IL-13-stimulated Maoa WT and KO BMDMs, H2O2 100 μM, to similar levels) is “elevated”.
